Assay results reported in patent US20230339937A1, “CONDENSED RING COMPOUNDS THAT INHIBIT H-PGDS” (SATO PHARMACEUTICAL CO., LTD., priority 2020, published 2023).

Target: T1, Recombinant human H-PGDS (Homo sapiens, UniProt O60760)
T1 construct: made in house; host or cells: E. coli
Assay: H-PGDS inhibitory activity (prostaglandin D2 production from prostaglandin H2, measured by LC-MS/MS)
Format: biochemical
Conditions: recombinant human H-PGDS 1.0 nM expressed in E. coli; prostaglandin H2 25 μM; preincubated 15 minutes on ice, reacted on ice for 1 minute; concentration that inhibits prostaglandin D2 production by 50%
In short: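 PGD2 formed from 25 µM prostaglandin H2 during a 1-min on-ice reaction was measured by LC-MS/MS after an FeCl2/citric acid stop. The enzyme was 1.0 nM E. coli-expressed human H-PGDS in Tris-HCl pH 8.0 buffer with MgCl2, reduced glutathione and γ-globulin, preincubated with compound for 15 min on ice. Production was normalised to DMSO controls minus the no-enzyme background.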

T1 sequence (O60760 whole entry): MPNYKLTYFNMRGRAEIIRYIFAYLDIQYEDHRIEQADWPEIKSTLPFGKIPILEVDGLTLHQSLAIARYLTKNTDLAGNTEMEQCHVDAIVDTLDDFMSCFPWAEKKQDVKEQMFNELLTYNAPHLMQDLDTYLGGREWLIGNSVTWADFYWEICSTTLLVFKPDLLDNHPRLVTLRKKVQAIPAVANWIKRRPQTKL

Row | Compound | IC50
1 | Cc1ccc(N2CCC(NC(=O)c3ccc(-c4nccc5occc45)cc3)CC2)nc1 [Example 151, 4-(furo[3,2-c]pyridin-4-yl)-N-[1-(5-methylpyridin-2-yl)piperidin-4-yl]benzamide] | 1.4 nM
2 | O=C(N[C@H]1CCN(c2ccc(Cl)nn2)C1)c1ccc(-c2nccc3occc23)cc1 [Example 228, (S)—N-[1-(6-chloropyridazin-3-yl)pyrrolidin-3-yl]-4-(furo[3,2-c]pyridin-4-yl)benzamide] | 1.9 nM
3 | O=C(NC1CC1)c1ccc(-c2nccc3occc23)cc1 [Example 95, N-cyclopropyl-4-(furo[3,2-c]pyridin-4-yl)benzamide] | 8.7 nM
4 | Cc1cccnc1N1CCC(NC(=O)c2ccc(-c3nccc4occc34)cc2)CC1 [Example 153, 4-(furo[3,2-c]pyridin-4-yl)-N-[1-(3-methylpyridin-2-yl)piperidin-4-yl]benzamide] | 4.1 nM
5 | O=C(NC1CCN(c2cccc(F)n2)CC1)c1ccc(-c2nccc3occc23)cc1 [Example 147, N-[1-(6-fluoropyridin-2-yl)piperidin-4-yl]-4-(furo[3,2-c]pyridin-4-yl)benzamide] | 1 nM
6 | CO[C@H]1CC[C@H](NC(=O)c2ccc(-c3nccc4occc34)cc2)CC1 [Example 285, 4-(furo[3,2-c]pyridin-4-yl)-N-(trans-4-methoxycyclohexyl)benzamide] | 2 nM
7 | Cn1nnnc1N1CCC(NC(=O)c2ccc(-c3nccc4occc34)c(F)c2)CC1 [Example 323, 3-fluoro-4-(furo[3,2-c]pyridin-4-yl)-N-[1-(1-methyl-1H-tetrazol-5-yl)piperidin-4-yl]benzamide] | 1.1 nM
8 | COCCNC(=O)c1ccc(-c2nccc3occc23)cc1 [Example 78, 4-(furo[3,2-c]pyridin-4-yl)-N-(2-methoxyethyl) benzamide] | 50 nM
9 | COC(=O)[C@H]1CC[C@H](NC(=O)c2ccc(-c3nccc4occc34)cc2)CC1 [Example 261, Methyl trans-4-[4-(furo[3,2-c]pyridin-4-yl)benzamide]cyclohexane-1-carboxylate] | 1.6 nM
10 | CCn1nnnc1N1CCC(NC(=O)c2ccc(-c3nccc4occc34)cc2)CC1 [Example 239, N-[1-(1-ethyl-1H-tetrazol-5-yl)piperidin-4-yl]-4-(furo[3,2-c]pyridin-4-yl)benzamide] | 1.2 nM
11 | Cn1cc(Br)c(CNC(=O)c2ccc(-c3nccc4[nH]ccc34)cc2)n1 [Example 50, N-[(4-bromo-1-methyl-1H-pyrazol-3-yl)methyl]-4-(1H-pyrrolo[3,2-c]pyridin-4-yl)benzamide] | 1.4 nM
12 | O=C(NCc1ccncc1)c1ccc(-c2nccc3occc23)cc1 [Example 72, 4-(furo[3,2-c]pyridin-4-yl)-N-(pyridin-4-ylmethyl) benzamide] | 12 nM
13 | Cc1cc2c(-c3ccc(C(=O)N[C@H]4CC[C@H](C(C)(C)O)CC4)cc3)nccc2o1 [Example 128, N-[trans-4-(2-hydroxypropan-2-yl)cyclohexyl]-4-(2-methylfuro[3,2-c]pyridin-4-yl)benzamide] | 3.5 nM
14 | NC(=O)c1cnc(N2CCC(NC(=O)c3ccc(-c4nccc5occc45)cc3)CC2)nc1 [Example 174, 2-{4-[4-(furo[3,2-c]pyridin-4-yl)benzamide]piperidin-1-yl}pyrimidine-5-carboxamide] | 1.1 nM
15 | CC(=O)N(C(C)=O)c1cnc(N2CCC(NC(=O)c3ccc(-c4nccc5occc45)cc3)CC2)nc1 [Example 188, N-{1-[5-(N-acetylacetamide)pyrimidin-2-yl]piperidin-4-yl}-4-(furo[3,2-c]pyridin-4-yl)benzamide] | 4.3 nM
16 | COc1cc(OC)nc(N2CCC(NC(=O)c3ccc(-c4nccc5occc45)cc3)CC2)n1 [Example 163] | 2.6 nM
17 | O=C(N[C@H]1CC[C@H](N2CCOCC2)CC1)c1ccc(-c2nccc3occc23)cc1 [Example 305, 4-(furo[3,2-c]pyridin-4-yl)-N-(trans-4-morpholinocyclohexyl)benzamide] | 55 nM
18 | Cn1c(N2CCC(NC(=O)c3ccc(-c4nccc5occc45)cc3)CC2)cccc1=O [Example 184, 4-(furo[3,2-c]pyridin-4-yl)-N-[1-(1-methyl-6-oxo-1,6-dihydropyridin-2-yl)piperidin-4-yl]benzamide] | 2.1 nM
19 | O=C(NC1CCN(C(=O)CC(F)(F)F)CC1)c1ccc(-c2nccc3occc23)cc1 [Example 246, 4-(furo[3,2-c]pyridin-4-yl)-N-[1-(3,3,3-trifluoropropanoyl)piperidin-4-yl]benzamide] | 1.8 nM
20 | Cn1nnnc1N1CC[C@H](NC(=O)c2ccc(-c3nccc4occc34)cc2)C1 [Example 231, (S)-4-(furo[3,2-c]pyridin-4-yl)-N-[1-(1-methyl-1H-tetrazol-5-yl)pyrrolidin-3-yl]benzamide] | 3.2 nM
21 | Cc1cc2occc2c(-c2ccc(C(=O)N[C@H]3CC[C@H](C(C)(C)O)CC3)cc2)n1 [Example 127, N-[trans-4-(2-hydroxypropan-2-yl)cyclohexyl]-4-(6-methylfuro[3,2-c]pyridin-4-yl)benzamide] | 1.6 nM

Row | Compound | IC50
22 | O=C(NC1CCc2ccccc21)c1ccc(-c2nccc3occc23)cc1 (centres unmarked) [Example 97, N-(2,3-dihydro-1H-inden-1-yl)-4-(furo[3,2-c]pyridin-4-yl)benzamide] | 2.8 nM
23 | CC(C)(O)CO[C@H]1CC[C@H](NC(=O)c2ccc(-c3nccc4occc34)c(F)c2)CC1 [Example 329, 3-fluoro-4-(furo[3,2-c]pyridin-4-yl)-N-[trans-4-(2-hydroxy-2-methylpropoxy)cyclohexyl]benzamide] | 2 nM
24 | CC(C)(O)[C@H]1CC[C@H](NC(=O)c2ccc(-c3nccc4occc34)cc2)CC1 [Example 124, 4-(furo[3,2-c]pyridin-4-yl)-N-[trans-4-(2-hydroxypropan-2-yl)cyclohexyl]benzamide] | 1.8 nM
25 | CC(C)(O)[C@H]1CC[C@H](NC(=O)c2ccc(-c3ncc(F)c4occc34)cc2)CC1 [Example 136, 4-(7-fluorofuro[3,2-c]pyridin-4-yl)-N-[trans-4-(2-hydroxypropan-2-yl)cyclohexyl]benzamide] | 9 nM
26 | CCOCCNC(=O)c1ccc(-c2nccc3[nH]ccc23)cc1 [Example 27, N-(2-ethoxyethyl)-4-(1H-pyrrolo[3,2-c]pyridin-4-yl)benzamide] | 0.98 nM
27 | Cc1nn(C)cc1CNC(=O)c1ccc(-c2nccc3[nH]ccc23)cc1 [Example 39, N-[(1,3-dimethyl-1H-pyrazol-4-yl)methyl]-4-(1H-pyrrolo[3,2-c]pyridin-4-yl)benzamide] | 1.1 nM
28 | O=C(NCC1CCCO1)c1ccc(-c2nccc3occc23)cc1 (centres unmarked) [Example 94, 4-(furo[3,2-c]pyridin-4-yl)-N-[(tetrahydro-furan-2-yl)methyl] benzamide] | 12 nM
29 | O=C(N[C@H]1CC[C@H](OCC2(O)CC2)CC1)c1ccc(-c2nccc3occc23)cc1 [Example 258, 4-(furo[3,2-c]pyridin-4-yl)-N-{trans-4-[(1-hydroxycyclopropyl)methoxy]cyclohexyl}benzamide] | 0.93 nM
30 | O=C(N[C@H]1C[C@H](O)C1)c1ccc(-c2nccc3occc23)cc1 [Example 270, 4-(furo[3,2-c]pyridin-4-yl)-N-(trans-3-hydroxycyclobutyl)benzamide] | 6.4 nM
31 | CC(=O)N1CCC(NC(=O)c2ccc(-c3nccc4occc34)cc2)CC1 [Example 186, N-(1-acetylpiperidin-4-yl)-4-(furo[3,2-c]pyridin-4-yl)benzamide] | 2.3 nM
32 | O=C(N[C@H]1CCN(c2ccnc(Cl)c2)C1)c1ccc(-c2nccc3occc23)cc1 [Example 195, (S)-N-[1-(2-chloropyridin-4-yl)pyrrolidin-3-yl]-4-(furo[3,2-c]pyridin-4-yl)benzamide] | 1.7 nM
33 | N#Cc1ccnc(N2CCC(NC(=O)c3ccc(-c4nccc5occc45)cc3)CC2)n1 [Example 164, N-[1-(4-cyanopyrimidin-2-yl)piperidin-4-yl]-4-(furo[3,2-c]pyridin-4-yl)benzamide] | 0.78 nM
34 | NC(=O)c1cc(N2CCC(NC(=O)c3ccc(-c4nccc5occc45)cc3)CC2)ccn1 [Example 176, 4-{4-[4-(furo[3,2-c]pyridin-4-yl)benzamide]piperidin-1-yl}picolinamide] | 1.2 nM
35 | Cn1nnc(N2CCC(NC(=O)c3ccc(-c4nccc5occc45)cc3)CC2)n1 [Example 249, 4-(furo[3,2-c]pyridin-4-yl)-N-[1-(2-methyl-2 H-tetrazol-5-yl)piperidin-4-yl]benzamide] | 1.6 nM
36 | O=C(NC1CCN(c2ncc(Br)c(=O)[nH]2)CC1)c1ccc(-c2nccc3occc23)cc1 [Example 182, N-[1-(5-bromo-6-oxo-1,6-dihydropyrimidin-2-yl)piperidin-4-yl]-4-(furo[3,2-c]pyridin-4-yl)benzamide] | 2.3 nM
37 | O=C(NCc1cccnc1)c1ccc(-c2nccc3occc23)cc1 [Example 77, 4-(furo[3,2-c]pyridin-4-yl)-N-(pyridin-3-ylmethyl) benzamide] | 24 nM
38 | O=C(NC1CCN(CC(F)(F)F)CC1)c1ccc(-c2nccc3occc23)cc1 [Example 180, 4-(furo[3,2-c]pyridin-4-yl)-N-[1-(2,2,2-trifluoroethyl)piperidin-4-yl]benzamide] | 0.96 nM
39 | N#CC12CCC(NC(=O)c3ccc(-c4nccc5occc45)cc3)(CC1)CC2 [Example 351, N-(4-cyanobicyclo[2.2.2]octan-1-yl)-4-(furo[3,2-c]pyridin-4-yl)benzamide] | 1.3 nM
40 | O=C(NC1CCC1)c1ccc(-c2nccc3occc23)cc1 [Example 86, N-cyclobutyl-4-(furo[3,2-c]pyridin-4-yl)benzamide] | 21 nM
41 | Cn1ccc2c(-c3ccc(C(=O)N[C@H]4CC[C@H](C(C)(C)O)CC4)cc3)nccc21 [Example 4, N-[trans-4-(2-hydroxypropan-2-yl)cyclohexyl]-4-(1-methyl-1H-pyrrolo[3,2-c]pyridin-4-yl)benzamide] | 7.4 nM
